Measurements from US20080051451A1, “Autoimmune conditions and NADPH oxidase defects” (priority 2006, published 2008).

What was measured:
[1] = Biodistribution of 3H-labelled phytol; format: in vivo, Rat (Rattus norvegicus)
Protocol: DA rats originating from Harlan Netherlands (N=4 rats per group) injected with compound 1 (phytol) mixed with radiolabelled compound 1 (phytol) (Moravek Biochemicals, CA) to a total volume of […] at 167 μCi/rat with ^3H-Phytol. At sacrifice at day 2, 4, 8, 11 and 17, respectively, inguinal lymph nodes, spleen, heart, thymus, kidney, liver, lung, adipose tissue, muscle, injection site tissue and blood were collected in equal amount of saline solution in pre-weight tubes (blood with heparin to prevent coagulation). The tissues were homogenized and mixed with ready-safe scintillation liquid (Beckman Coulter, CA). Biodistribution was estimated as relative CPM per gram tissue.

DA.Ncf1^DA rats = assay: Pristane induced arthritis (PIA) in DA.Ncf1^DA rats; format: in vivo, Rat (Rattus norvegicus)
[2] = tested on: Rats heterozygous for the functional Ncf1 (Ncf1^E3) allele with Pia3 locus; assay: Pristane induced arthritis (PIA) in rats with a functional oxidative burst; details: injected i.p. (200 μl) at the estimated peak of disease
Protocol: Disease was induced in all rats at the age of 6-12 weeks. Arthritis development was monitored with a macroscopic scoring system of the four limbs ranging from 0 to 15 (1 point for each swollen or red toe, 1 point for midfoot digit or knuckle, 5 points for a swollen ankle). The scores of the four paws were added yielding a maximum total score of 60 for each rat.
Therapeutic treatments were administered s.c. or intra peritoneal (i.p.; 200 μl) after onset of disease in the acute or chronic phase (FIG. 6).

[3] = relative CPM per gram tissue, day 2, 4, 8, 11, 17

SMILES: C/C(=C\CO)CCCC(C)CCCC(C)CCCC(C)C (centres unmarked) [compound 1, 3,7,11,15-Tetramethyl-2-hexadecen-1-ol]
- fraction remaining as a depot in the injection site ([1]; DA rats, 3H-Phytol injection): > 90%
- cellular localisation of staining in lymph nodes ([1]; rat, in vivo): in-between cells or in the cell membrane, i.e. not intracellular
- distribution within the draining lymph nodes ([1]; rat, in vivo): distributed primarily to the cortical regions as well as close to the sinusoidal space of the draining lymph nodes
- primary tissue for accumulation [1, 3]: draining lymph nodes were the primary tissue for accumulation
- time course of distribution to the inguinal lymph nodes [1, 3]: highest accumulation more than one week after injection and showed a decrease after two weeks
- severity of PIA, oral gavage (DA.Ncf1^DA rats; both doses, every second day (1.6 and 3.2 mg/kg as printed elsewhere in the source)): potent arthritis ameliorating effect
- severity of arthritis, chronic phase of PIA (DA.Ncf1^DA rats; injected i.p. twice (200 μl) starting day 70, three days between treatments): decreases arthritis severity in the chronic phase of arthritis
- severity of PIA (arthritis score), preventive (DA.Ncf1^DA rats; injected s.c. day -5 prior to pristane injection): inhibits development of arthritis
- cartilage destruction (serum COMP levels) (DA.Ncf1^DA rats; sera taken day 38, treatment from day 22): Cartilage destruction is decreased
- severity of arthritis, acute phase of established PIA (DA.Ncf1^DA rats; two injections (200 μl, s.c. or i.p.) with 5 days in between starting day 22): ameliorates disease in the acute phase of arthritis
- severity of arthritis in rats with a functional oxidative burst [2]: arthritis ameliorating effect
